This is an account of results in patent US6759568B2, “High estrogen-sensitive medaka fish” (President of Hiroshima University, priority 2000, dated 2004).

What all share (format): in vivo, Oryzias latipes
The test system of assay [1] is fertilized eggs (C), strain C of the transgenic medaka fish crossed with wild medaka fish. Briefly: Formation of thrombus by 17β-estradiol in fertilized eggs (C) of strain C transgenic medaka fish. To be noted: for fertilized eggs that caused the formation of the thrombi: fertilized eggs (C), 25° C., 3 days. Here is the method:
(§1) Medaka physiological saline solutions (40 mL for each) containing 17 β-estradiol in an amount of 2 ng/L, 20 ng/L, 200 ng/L, 2 μg/L, 1 mg/L, and 4 mg/L were supplied in culture plates, respectively. Three sets were prepared for each concentration. About 30 fertilized eggs (W) of 12-hours after fertilization which were obtained by mutual mating between wild medaka fish, were placed in the first set of culture plates. About 30 fertilized eggs (A) of 12-hours after fertilization which were obtained by crossing the strain A of the transgenic medaka fish with wild medaka fish, were placed in the second set of culture plates. About 30 fertilized eggs (C) of 12-hours after fertilization which were obtained by crossing the strain C of the transgenic medaka fish with wild medaka fish, were placed in the third set of culture plates. After the culture plates were incubated at 25° C. for 3 days, medaka embryos were checked under dissecting microscope with respect to formation of a thrombus. In almost 100% of the fertilized eggs (W), one or more thrombi were formed at the concentration of 4 mg/L of 17β-estradiol, but were not observed at the concentration of less than 4 mg/L. 1%, 3%, 8%, 49%, 55%, and 100% of the fertilized eggs (A) caused the formation of the thrombi at the concentrations of 2 ng/L, 20 ng/L, 200 ng/L, 2 μg/L, 1 mg/L, and 4 mg/L of 17β-estradiol, respectively. 19%, 41%, 75%, 73%, 60%, and 100% of the fertilized eggs (C) caused the formation of the thrombi at the same concentrations as mentioned above, respectively.

Assay [2] has as its system fertilized eggs (W) of wild medaka fish. The assay is described as follows: Formation of thrombus by 17β-estradiol in fertilized eggs (W) of wild medaka fish. Particulars: 25° C., 3 days. Here is the method:
as §1, with “19%, 41%, 75%, 73%, 60%, and 100% of the fertilized eggs (C) caused the formation of the thrombi at the same concentrations as mentioned above, respectively.” left out

The subject of assay [3] is fertilized eggs (A), strain A of the transgenic medaka fish crossed with wild medaka fish. The assay is described as follows: Formation of thrombus by 17β-estradiol in fertilized eggs (A) of strain A transgenic medaka fish. Particulars: for fertilized eggs that caused the formation of the thrombi: fertilized eggs (A), 25° C., 3 days. Here is the method: as §1

As for `C[C@]12CC[C@@H]3c4ccc(O)cc4CC[C@H]3[C@@H]1CC[C@@H]2O` [17β-estradiol], the “estrogen sensitivity relative to that of the wild medaka fish” value is on record as “hundred thousand times” in assay [1] (fertilized eggs (C) versus wild medaka fish) and “thousand times” in assay [3] (fertilized eggs (A) versus wild medaka fish). Besides, the “fertilized eggs that caused the formation of the thrombi” value in assay [1] (2 ng/L) is given as 19%; in assay [1] (20 ng/L), 41%; in assay [1] (200 ng/L), 75%; in assay [1] (2 μg/L), 73%; in assay [1] (1 mg/L), 60%; in assay [1] (4 mg/L), 100%. Moreover, the “fertilized eggs that caused the formation of the thrombi” value in assay [3] (2 ng/L) is given as 1%; in assay [3] (20 ng/L) it was 3%; in assay [3] (200 ng/L), 8%; in assay [3] (2 μg/L), 49%; in assay [3] (1 mg/L) it was 55%; in assay [3] (4 mg/L), 100%. Also, the “fertilized eggs in which one or more thrombi were formed” value in assay [2] (4 mg/L) is recorded as about 100%. In addition, in assay [2] (concentration of less than 4 mg/L), the formation of thrombi entry is reported as “not observed”.
